Results published in US20240050513A1, “COMPOSITION FOR PREVENTING, AMELIORATING, OR TREATING DISEASE CAUSED BY PROTEIN NITRATION […] WITH TERMINAL TYROSINE AS EFFECTIVE COMPONENT” (INDUSTRY-ACADEMIC COOPERATION FOUNDATION GYEONGSANG …, priority 2021, published 2024).
Like-named read-outs stand apart in the source and are kept apart here.

What was measured:
[1] = system: glutamine synthetase (GS); assay: GS activity and GS tyrosine nitration in PFC, chronic immobilization stress model; type: in vivo, C57BL/6 mice; conditions: stress group
Protocol: Using the prefrontal cortex (PFC) lysate samples from mice obtained after the completion of chronic immobilization stress, GS activity and GS expression level were measured by following the method described above.
Furthermore, the level of tyrosine nitration within GS was measured by using immunoprecipitation (IP)-WB. The immunoprecipitation analysis of tyrosine-nitrated GS was performed using an anti-nitrotyrosine antibody (ab61392, Abcam) and Protein A/G PLUS-Agarose (Santa Cruz) according to the manufacturer's protocol.

[2] = system: ischemic stroke Mongolian gerbils; assay: Neuronal cell death in ischemic stroke model (cell count, immunohistochemical staining); type: in vivo
Protocol: Three-month-old male Mongolian gerbils were induced with general anesthesia using 3% isoflurane and the anesthesia was maintained with 2.5% isoflurane gas. After sterilizing the neck area, a midline incision was made to expose both common carotid arteries, and microvessel clip was used to block the blood flow for 5 minutes, inducing cerebral ischemia to simulate a stroke. During the application of the microvessel clip, the body temperature was maintained at 37.0±0.5° C., and animals undergoing sham operation were used as the control group.
After inducing ischemia, the animal was, under reperfusion, intraperitoneally administered with YQ peptide at a dose of 200 mg/kg, three times every 24 hours. On the fourth day, the animal was sacrificed, and brain tissues were collected to measure the number of dead neuronal cell.
Immunohistochemical staining was carried out to examine changes in neuronal cells and microglial cells and also a change in related factors in the hippocampus of an ischemic brain injury animal model. Specifically, after inducing ischemia, YQ peptide was administered intraperitoneally three times every 24 hours at a dose of 200 mg/kg under reperfusion. A control group was administered with a vehicle (i.e., 0.9% saline) instead of the peptide. On the 4th day, the animal was sacrificed, and brain tissue was collected and fixed with 4% paraformaldehyde at 4° C. Subsequently, the tissue was added to sucrose solutions of increasing concentrations (i.e., 10%, 20%, and 30%), frozen using liquid nitrogen, and sectioned into continuous slice specimens with a thickness of 30 μm. The specimens were stored in a cryoprotective solution at −20° C. The brain tissue specimen was rinsed three times for 10 minutes each with 0.01 M PBS and treated with 0.3% H2O2 for 30 minutes to eliminate endogenous peroxidase present in the tissue. To prevent any nonspecific immune reaction, the specimen was incubated for 30 minutes with 5% normal serum corresponding to each antibody. […]

[3] = system: high-fat diet C57BL/6 mice
Protocol: Three-week-old male C57BL/6 mice were purchased from Koatech and housed in the animal facility under controlled conditions of temperature (22±2° C.), humidity (50±5%), and a 12-hour light-dark cycle. Two mice were housed per a cage. […] The mice were maintained on their respective diets for a duration of 17 weeks.
With an interval of one week, the body weight and food intake of each animal were measured. Additionally, at 1, 5, or 8 weeks after the start of the experiment, fasting blood glucose level was measured using an Accu-Check glucose meter.
At 15 weeks after the start of the test, a glucose tolerance test (GTT) was performed, and at 16 weeks, an insulin tolerance test (ITT) was carried out. For the
GTT, after a 12-hour fasting period, a glucose solution of 2 g/kg was administered through intraperitoneal injection, and blood samples were collected from the vein at 0, 20, 60, 90, and 120 minutes to measure blood glucose level. For the ITT, after a 6-hour fasting period, insulin at a dose of 0.75 U/kg was administered through intraperitoneal injection, and blood samples were collected from the vein at 0, 15, 30, 60, and 120 minutes to measure blood glucose level.
The urine volume (ml) was measured by collecting urine from the metabolic cages over a 16-hour period, and the fat mass was measured for each mouse using the EchoMRITM device and expressed as a percentage (%) of body weight.
The insulin concentration was measured using an ELISA kit (Crystal Chem, Ultra-Sensitive Mouse Insulin ELISA Kit), and the alanine aminotransferase (ALT) concentration was measured using an assay kit (IVD Lab Co., ChemiLab GPT (ALT) assay kit). Additionally, the concentration of reactive oxygen species/reactive nitrogen species (ROS/RNS) was measured by using an assay kit (Cell Biolabs, Inc., OxiSelect™ In Vitro ROS/RNS Assay Kit).
After anesthesia, liver tissues were dissected and rapidly frozen in liquid nitrogen. Some tissues were fixed in 10% formalin, and 5 μm-thick tissue slides were prepared from paraffin blocks. The tissues were then stained with H&E (hematoxylin and eosin) and observed under a microscope (Olympus, CKX41) for imaging.
A decrease in insulin receptor in muscles in metabolic disorders reduces the sensitivity to insulin signal, thus limiting the ability to utilize glucose in the muscles to cause sarcopenia. The liver tissue was homogenized in RIPA buffer, and protein quantification was performed using the BCA method. Western blot analysis was then conducted using an anti-insulin receptor-beta (IRβ) antibody.
It is known that a decrease in renal function leads to an increase in the concentration of albumin and a decrease in creatinine in urine. Therefore, the albumin and creatinine levels in urine were measured using mouse albumin ELISA kit (Abcam) and creatinine assay kit (Abcam), respectively, in each test animal. The albumin/creatinine ratio was then calculated. Additionally, 10 μL of blood plasma or 40 mg of homogenized liver tissue were subjected to centrifugation at 10,000 g for 10 minutes, and the supernatant was separated to measure the triglycerides (TG) level in plasma or liver by using a triglyceride measurement kit (Cayman).

Substance: tyrosine-glutamine [YQ]
- tyrosine nitration level of GS ([1]; IP-WB, peptide diet vs normal diet): statistically significant decrease
- GS activity ([1]; peptide diet (330 mg/kg) vs normal diet): statistically significant increase
- number of neuronal cells ([2]; 200 mg/kg i.p. three times every 24 hours, fourth day): increase
- cells found to survive compared to the sham operation group ([2]; hippocampal CA1 region, 200 mg/kg i.p. three times every 24 hours, 4th day): approximately 60.7%
- morphological changes in glial cells ([2]; immunohistochemical staining, 200 mg/kg i.p. three times): minimal morphological changes
- fasting blood glucose level ([3]; HFD+1xYQ vs HFD, 1, 5 or 8 weeks): decrease in blood glucose level
- body weight ([3]; HFD+3xYQ vs HFD): lower body weight
- fat mass ([3]; HFD+3xYQ vs HFD): decrease
- fasting blood glucose level ([3]; HFD+3xYQ vs HFD, 1, 5 or 8 weeks): decrease in blood glucose level
- blood glucose level, glucose tolerance test (GTT) ([3]; HFD+3xYQ vs HFD, 15 weeks): decrease in blood glucose level
- urine volume ([3]; HFD+3xYQ vs HFD, 16-hour collection): decrease
- blood glucose level, insulin tolerance test (ITT) ([3]; HFD+3xYQ vs HFD, 16 weeks): decrease in blood glucose level
- expression level of IRβ ([3]; liver tissue, Western blot, HFD+3xYQ vs HFD): increase
